Columns and labels:
[1] = system: STZ-induced diabetic rats; assay: In vivo hypoglycemic effect; design: species or system Wistar rats; settings: subcutaneous injection, 5 IU kg^−1
[2] = system: STZ-induced diabetic rats; assay: In vivo oral glucose tolerance test (OGTT); design: species or system Wistar rats; settings: glucose 2.5 g·kg^−1 by gavage 3 hours after treatment, 280 minutes; SC 5 IU·kg^−1 or oral 50 IU·kg^−1
[3] = system: Hep-G2 cells; assay: Insulin-FITC internalization in cells by confocal microscopy; type: cell-based, human; settings: 4 h incubation, [Insulin-FITC]=10 μM
[4] = system: R-HepG2 cells; assay: Glucose consumption assay in insulin-resistant cells; type: cell-based, human; settings: R-HepG2, [Insulin]=10 μM
[5] = system: STZ-induced diabetic rats; settings: SC insulin 5 IU·kg^−1 or oral TTA-DFP-nCOF/Insulin 50 IU·kg^−1
[6] = system: STZ-induced diabetic rats; settings: rat, in vivo
[7] = system: non-everted mouse small intestine sac; settings: pure insulin; cited from earlier work

**Q.** Which “persistence of the blood glucose reduction” value [1] does the source give for insulin here?
**A.** the effect was not sustained

**Q.** And the “time to marked reduction of the blood glucose level” value [1]?
**A.** ≤ 1 h

**Q.** And the “glycaemia in OGTT” value [2]?
**A.** decreases severely the glucose plasma level the two first hours after the glucose gavage

**Q.** What about the “intracellular insulin-FITC signal / localization” value [3] of the same substance?
**A.** no detectable intracellular insulin-FITC signal

**Q.** And the “change of cellular glucose metabolism after 4 h” value ([4]; t=4 h)?
**A.** transient increase in cellular glucose metabolism

**Q.** What about the “change of cellular glucose metabolism / insulin resistance after 24 h” value ([4]; t=24 h) of the same substance?
**A.** statistically significant worsening

**Q.** What about the HOMA-IR [5] of the same substance?
**A.** 0.6 (0.3)

**Q.** And the HOMA-IS [5]?
**A.** 50.4 (11.0)

**Q.** And the “histopathology of liver and kidney” value [6]?
**A.** commonly observed damages to the liver and kidney

**Q.** What about the “histopathology of the kidney” value [6] of the same substance?
**A.** increase of the size of Bowman capsules, hypertrophy of the glomeruli and necrosis of the tubules

**Q.** What about the “histopathology of the liver” value [6] of the same substance?
**A.** increase of big hepatocytes, a necrosis of hepatocytes and a narrowing in the sinusoids

**Q.** What about the “Permeability (reported value)” value [7] of the same substance?
**A.** 8.02 μg·cm^−2
